Assay [1] concerns the target T1, mouse Siglec-2-Fc-Avi (CD22) (Mus musculus, UniProt P35329).
T1 construct: made in house
T1 sequence (P35329 22-708 limits assumed): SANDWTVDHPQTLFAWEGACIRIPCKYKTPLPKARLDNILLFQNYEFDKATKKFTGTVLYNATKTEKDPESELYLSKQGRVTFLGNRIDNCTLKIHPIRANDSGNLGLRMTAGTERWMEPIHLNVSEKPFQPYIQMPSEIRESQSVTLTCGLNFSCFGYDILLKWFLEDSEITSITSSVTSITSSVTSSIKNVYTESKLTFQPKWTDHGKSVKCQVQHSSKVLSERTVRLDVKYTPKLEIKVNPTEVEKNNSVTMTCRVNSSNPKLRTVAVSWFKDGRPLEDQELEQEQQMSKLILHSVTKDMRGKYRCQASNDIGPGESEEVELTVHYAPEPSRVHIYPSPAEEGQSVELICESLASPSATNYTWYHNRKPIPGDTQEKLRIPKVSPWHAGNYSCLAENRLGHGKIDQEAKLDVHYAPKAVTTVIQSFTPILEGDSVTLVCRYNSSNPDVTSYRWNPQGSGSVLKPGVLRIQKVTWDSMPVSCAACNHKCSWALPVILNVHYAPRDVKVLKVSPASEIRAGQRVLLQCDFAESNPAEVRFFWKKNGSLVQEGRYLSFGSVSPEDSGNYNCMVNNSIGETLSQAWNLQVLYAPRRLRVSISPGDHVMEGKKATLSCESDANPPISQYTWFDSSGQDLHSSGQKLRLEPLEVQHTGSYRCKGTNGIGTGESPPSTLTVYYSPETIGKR
As to the kind of experiment: SPR binding affinity to mouse CD22. Particulars: steady-state analysis. Put shortly: (§1)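 Biotinylated CD22 desialylated with SialoExo (4 h, 37° C) before capture on streptavidin chip. Running buffer 10 mM HEPES, 150 mM NaCl, 0.05% Tween-20, pH 7.5, 1% DMSO, with DMSO solvent correction; 120 s dissociation. Compound affinities from steady-state analysis.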

Assay [2] addresses T2, human Siglec-2/CD22 protein (Homo sapiens, UniProt P20273).
T2 construct: purchased Acro Biosystems SI2-H82E3
T2 sequence (P20273 20-847): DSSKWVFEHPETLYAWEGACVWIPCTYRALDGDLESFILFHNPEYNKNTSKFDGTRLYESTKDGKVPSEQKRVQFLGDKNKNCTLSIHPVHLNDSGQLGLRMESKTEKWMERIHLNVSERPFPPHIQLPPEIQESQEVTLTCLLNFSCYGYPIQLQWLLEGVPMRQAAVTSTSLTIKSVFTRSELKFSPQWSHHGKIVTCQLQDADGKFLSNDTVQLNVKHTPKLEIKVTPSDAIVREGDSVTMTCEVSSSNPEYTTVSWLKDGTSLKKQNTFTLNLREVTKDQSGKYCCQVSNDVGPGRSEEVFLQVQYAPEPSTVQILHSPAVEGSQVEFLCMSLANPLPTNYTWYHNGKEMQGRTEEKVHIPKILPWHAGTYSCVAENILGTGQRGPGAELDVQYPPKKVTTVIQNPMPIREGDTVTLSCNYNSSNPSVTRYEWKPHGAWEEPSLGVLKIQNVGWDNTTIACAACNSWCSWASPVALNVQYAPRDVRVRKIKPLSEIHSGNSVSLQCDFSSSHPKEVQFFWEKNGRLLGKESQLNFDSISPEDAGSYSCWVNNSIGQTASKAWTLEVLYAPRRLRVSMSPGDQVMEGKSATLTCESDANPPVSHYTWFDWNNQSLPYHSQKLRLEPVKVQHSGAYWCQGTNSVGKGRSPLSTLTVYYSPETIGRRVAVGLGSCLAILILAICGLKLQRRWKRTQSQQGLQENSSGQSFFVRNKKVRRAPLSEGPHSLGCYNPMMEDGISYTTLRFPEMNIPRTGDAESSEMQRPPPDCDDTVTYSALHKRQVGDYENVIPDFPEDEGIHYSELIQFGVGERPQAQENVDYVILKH
As to the kind of experiment: SPR binding affinity to human CD22. Particulars: steady-state analysis. Put shortly:
as §1

In another assay the target is cynomolgus Siglec-2/CD22 (Macaca fascicularis, UniProt A0A2K5WCZ6). As to the kind of experiment: biochemical. Type of assay: binding. Particulars: SPR, steady-state analysis; read-out: Affinity cyno CD22. An outline of the steps:
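SPR with desialylated (SialoExo, 4 h, 37° C.) cynomolgus CD22 amine-coupled to a CM5 chip. Running buffer 10 mM HEPES, 150 mM NaCl, 0.05% Tween-20, pH 7.5, 1% DMSO, with solvent correction; 120 s dissociation. Affinities from steady-state analysis.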

Bounds are passed on as bounds.

cynomolgus Siglec-2/CD22, sequence (A0A2K5WCZ6 entry or part of it): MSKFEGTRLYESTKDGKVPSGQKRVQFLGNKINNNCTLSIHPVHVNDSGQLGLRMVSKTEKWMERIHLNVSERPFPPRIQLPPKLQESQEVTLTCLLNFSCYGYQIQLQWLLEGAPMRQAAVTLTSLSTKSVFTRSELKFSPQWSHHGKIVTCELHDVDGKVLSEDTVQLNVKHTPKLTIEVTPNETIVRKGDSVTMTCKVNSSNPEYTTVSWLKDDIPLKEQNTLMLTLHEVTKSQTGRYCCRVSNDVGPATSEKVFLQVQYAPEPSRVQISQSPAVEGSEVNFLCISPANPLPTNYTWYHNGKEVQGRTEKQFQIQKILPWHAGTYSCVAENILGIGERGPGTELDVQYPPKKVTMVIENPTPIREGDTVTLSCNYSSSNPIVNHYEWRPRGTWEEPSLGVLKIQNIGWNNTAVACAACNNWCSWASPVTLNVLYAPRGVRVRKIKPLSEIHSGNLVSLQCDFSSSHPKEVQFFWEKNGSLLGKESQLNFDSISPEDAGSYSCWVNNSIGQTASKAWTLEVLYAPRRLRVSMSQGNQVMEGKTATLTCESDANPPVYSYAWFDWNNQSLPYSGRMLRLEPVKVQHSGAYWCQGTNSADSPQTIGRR

In the case of `C#CCCCCCCO[C@]1(C(=O)O)C[C@H](O)[C@@H](NC(=O)CO)[C@H]([C@H](O)[C@H](O)CNC(=O)Cc2ccc(C(F)F)cc2)O1` [Compound 212, (2R,4S,5R,6R)-6-((1R,2R)-3-(2-(4-(difluoromethyl)phenyl)acetamido)-1,2-dihydroxypropyl)-4-hydroxy-5-(2-hydroxyacetamido)-2-(oct-7-yn-1-yloxy)tetrahydro-2H-pyran-2-carboxylic acid], the Kd (in assay [1]; in assay [2]; at cynomolgus Siglec-2/CD22) was under 1000 nM throughout.
For the molecule `C#CCOCCCCCCO[C@]1(C(=O)O)C[C@H](O)[C@@H](NC(=O)Cc2ccccc2)[C@H]([C@H](O)[C@H](O)CNC(=O)Cc2ccc(Cl)cc2)O1` [Compound 93, (2R,4S,5R,6R)-6-((1R,2R)-3-(2-(4-chlorophenyl)acetamido)-1,2-dihydroxypropyl)-4-hydroxy-5-(2-phenylacetamido)-2-((6-(prop-2-yn-1-yloxy)hexyl)oxy)tetrahydro-2H-pyran-2-carboxylic acid], the Kd was over 10000 nM in assay [1], 1000 to 10000 nM in assay [2] and over 10000 nM on cynomolgus Siglec-2/CD22.
Consider `C#CCOCCOCCNc1c(NCCCCCCO[C@]2(C(=O)O)C[C@H](O)[C@@H](NC(=O)CO)[C@H]([C@H](O)[C@H](O)CNC(=O)c3cccc(F)c3)O2)c(=O)c1=O` [Compound 234, (2R,4S,5R,6R)-2-((6-((3,4-dioxo-2-((2-(2-(prop-2-yn-1-yloxy)ethoxy)ethyl)amino)cyclobut-1-en-1-yl)amino)hexyl)oxy)-6-((1R,2R)-3-(3-fluorobenzamido)-1,2-dihydroxypropyl)-4-hydroxy-5-(2-hydroxyacetamido)tetrahydro-2H-pyran-2-carboxylic acid], for which the Kd (in assay [1]; in assay [2]; on cynomolgus Siglec-2/CD22) was 1000 to 10000 nM each time.
With `C#CCCOc1ccc(CS[C@]2(C(=O)O)C[C@H](O)[C@@H](NC(=O)CO)[C@H]([C@H](O)[C@H](O)CNC(=O)Cc3ccc(O)cc3)O2)cc1` [Compound 148, (2S,4S,5R,6R)-2-((4-(but-3-yn-1-yloxy)benzyl)thio)-6-((1R,2R)-1,2-dihydroxy-3-(2-(4-hydroxyphenyl)acetamido)propyl)-4-hydroxy-5-(2-hydroxyacetamido)tetrahydro-2H-pyran-2-carboxylic acid], the Kd is under 1000 nM in assay [1], under 1000 nM in assay [2] and 1000 to 10000 nM at cynomolgus Siglec-2/CD22.
For `C#CCOc1ccccc1-c1cn([C@]2(C(=O)O)C[C@H](O)[C@@H](NC(=O)CO)[C@H]([C@H](O)[C@H](O)CNC(=O)Cc3ccc(-c4ccc(O)cc4)cc3)O2)nn1` [Compound 59, (2R,4S,5R,6R)-6-((1R,2R)-1,2-dihydroxy-3-(2-(4′-hydroxy-[1,1′-biphenyl]-4-yl)acetamido)propyl)-4-hydroxy-5-(2-hydroxyacetamido)-2-(4-(2-(prop-2-yn-1-yloxy)phenyl)-1H-1,2,3-triazol-1-yl)tetrahydro-2H-pyran-2-carboxylic acid], the Kd in assay [1] is 1000 to 10000 nM; in assay [2], under 1000 nM; on cynomolgus Siglec-2/CD22, 1000 to 10000 nM.
In the case of `C#CCOCCOCCO[C@]1(C(=O)O)C[C@H](O)[C@@H](NC(=O)CO)[C@H]([C@H](O)[C@H](O)CNC(=O)c2cccc(Oc3ccc(O)cc3)c2)O1` [Compound 18, (2R,4S,5R,6R)-6-((1R,2R)-1,2-dihydroxy-3-(3-(4-hydroxyphenoxy)benzamido)propyl)-4-hydroxy-5-(2-hydroxyacetamido)-2-(2-(2-(prop-2-yn-1-yloxy)ethoxy)ethoxy)tetrahydro-2H-pyran-2-carboxylic acid], the Kd was 1000 to 10000 nM in assay [1], under 1000 nM in assay [2] and 1000 to 10000 nM at cynomolgus Siglec-2/CD22.
As to `C#CCCOc1ccc(CO[C@]2(C(=O)O)C[C@H](O)[C@@H](NC(=O)CO)[C@H]([C@H](O)[C@H](O)CNC(=O)Cc3ccccc3NC(C)=O)O2)cc1` [Compound 163, (2R,4S,5R,6R)-6-((1R,2R)-3-(2-(2-acetamidophenyl)acetamido)-1,2-dihydroxypropyl)-2-((4-(but-3-yn-1-yloxy)benzyl)oxy)-4-hydroxy-5-(2-hydroxyacetamido)tetrahydro-2H-pyran-2-carboxylic acid], the Kd (in assay [1]; in assay [2]; at cynomolgus Siglec-2/CD22) was 1000 to 10000 nM in each case.
For the molecule `C#CCCOc1ccc(CO[C@]2(C(=O)O)C[C@H](O)[C@@H](NC(=O)CO)[C@H]([C@H](O)[C@H](O)CNC(=O)Cc3cccc(-c4cccc(O)c4)c3)O2)cc1` [Compound 45, (2R,4S,5R,6R)-2-((4-(but-3-yn-1-yloxy)benzyl)oxy)-6-((1R,2R)-1,2-dihydroxy-3-(2-(3′-hydroxy-[1,1′-biphenyl]-3-yl)acetamido)propyl)-4-hydroxy-5-(2-hydroxyacetamido)tetrahydro-2H-pyran-2-carboxylic acid], the Kd in assay [1] was 1000 to 10000 nM; in assay [2], under 1000 nM; on cynomolgus Siglec-2/CD22 it was 1000 to 10000 nM.
Take `C#CCN(CC(=O)O)C(=O)CCCCCO[C@]1(C(=O)O)C[C@H](O)[C@@H](NC(=O)CO)[C@H]([C@H](O)[C@H](O)CNC(=O)Cc2ccc(Cl)cc2)O1` [Compound 100, (2R,4S,5R,6R)-2-((6-((carboxymethyl)(prop-2-yn-1-yl)amino)-6-oxohexyl)oxy)-6-((1R,2R)-3-(2-(4-chlorophenyl)acetamido)-1,2-dihydroxypropyl)-4-hydroxy-5-(2-hydroxyacetamido)tetrahydro-2H-pyran-2-carboxylic acid]: the Kd (in assay [1]; in assay [2]; at cynomolgus Siglec-2/CD22) was under 1000 nM each time.
As for `C#CCOc1ccc(CO[C@]2(C(=O)O)C[C@H](O)[C@@H](NC(=O)CO)[C@H]([C@H](O)[C@H](O)CNC(=O)Cc3ccc(-c4ccc(O)cc4)c(Cl)c3)O2)cc1` [Compound 47, (2R,4S,5R,6R)-6-((1R,2R)-3-(2-(2-chloro-4′-hydroxy-[1,1′-biphenyl]-4-yl)acetamido)-1,2-dihydroxypropyl)-4-hydroxy-5-(2-hydroxyacetamido)-2-((4-(prop-2-yn-1-yloxy)benzyl)oxy)tetrahydro-2H-pyran-2-carboxylic acid], the Kd (in assay [1]; in assay [2]; at cynomolgus Siglec-2/CD22) was under 1000 nM throughout.
`C#CCCOc1ccc(CO[C@]2(C(=O)O)C[C@H](O)[C@@H](NC(=O)CO)[C@H]([C@H](O)[C@H](O)CNC(=O)C3(c4ccc(C(F)(F)F)cc4)CCOCC3)O2)cc1` [Compound 170, (2R,4S,5R,6R)-2-((4-(but-3-yn-1-yloxy)benzyl)oxy)-6-((1R,2R)-1,2-dihydroxy-3-(4-(4-(trifluoromethyl)phenyl)tetrahydro-2H-pyran-4-carboxamido)propyl)-4-hydroxy-5-(2-hydroxyacetamido)tetrahydro-2H-pyran-2-carboxylic acid]: the Kd (in assay [1]; in assay [2]; on cynomolgus Siglec-2/CD22) was 1000 to 10000 nM in each case.
With `C#CCOCCOCCO[C@]1(C(=O)O)C[C@H](O)[C@@H](NC(=O)CO)[C@H]([C@H](O)[C@H](O)CNC(=O)Cc2cccc(Cl)c2)O1` [Compound 125, (2R,4S,5R,6R)-6-((1R,2R)-3-(2-(3-chlorophenyl)acetamido)-1,2-dihydroxypropyl)-4-hydroxy-5-(2-hydroxyacetamido)-2-(2-(2-(prop-2-yn-1-yloxy)ethoxy)ethoxy)tetrahydro-2H-pyran-2-carboxylic acid], the Kd was 1000 to 10000 nM in assay [1], under 1000 nM in assay [2] and 1000 to 10000 nM on cynomolgus Siglec-2/CD22.

The record behind these values is US20250064941A1, “SIGLEC LIGANDS, CONJUGATES, AND METHODS OF USE THEREOF” (Osprey Biopharmaceuticals, Inc., priority 2023, published 2025).
